A short description of the data set: activity coefficient (dimensionless); of the first substance listed, at infinite dilution; xn = mol fraction of the nth substance listed. The conditions noted are these: 298 K; 238 kPa; Liquid; Chromatography; x1 = 0.

± gives the expanded uncertainty stated by the source.

With `Cc1ccccc1C` [1,2-dimethylbenzene] + CC(O)CO, the activity coefficient is 26.3 ± 3.1.

On to `Cc1ccccc1C` [1,2-dimethylbenzene] + COCCO, for which the activity coefficient turned out to be 5 ± 0.3.

Turning to `Cc1cccc(C)c1` [1,3-dimethylbenzene] + CC(O)CO, the activity coefficient amounted to 28.4 ± 2.2.

With `Cc1cccc(C)c1` [1,3-dimethylbenzene] + COCCO, the activity coefficient came out at 5.2 ± 0.3.

Regarding `Cc1ccc(C)cc1` [1,4-dimethylbenzene] + CC(O)CO, the activity coefficient was found to be 26.7 ± 3.1.

Consider `Cc1ccc(C)cc1` [1,4-dimethylbenzene] + COCCO, for which the activity coefficient is 5.2 ± 0.3.

Turning to `C=CCCCCC=C` [1,7-octadiene] + COCCO, the activity coefficient turned out to be 10.6 ± 0.5.

For `Cc1ccc(C(C)C)cc1` [1-(1-methylethyl)-4-methylbenzene] + COCCO, the activity coefficient stood at 10 ± 0.5.

As for `C=CC1CC=CCC1` (stereo unspecified) [4-ethenylcyclohexene] + COCCO, the activity coefficient is 8.6 ± 0.3.

Turning to `c1ccccc1` [benzene] + CC(O)CO, the activity coefficient was determined as 11.8 ± 1.1.

Turning to `c1ccccc1` [benzene] + COCCO, the activity coefficient came to 2.4 ± 0.4.

As for `Brc1ccccc1` [bromobenzene] + COCCO, the activity coefficient came to 3.5 ± 0.2.

On to `Clc1ccccc1` [chlorobenzene] + CC(O)CO, for which the activity coefficient is 13.6 ± 1.1.

For the compound `Clc1ccccc1` [chlorobenzene] + COCCO, the activity coefficient stood at 2.9 ± 0.4.

Regarding `C1CCCCC1` [cyclohexane] + COCCO, the activity coefficient was 11.4 ± 0.7.

As to `C1=CCCCC1` [cyclohexene] + COCCO, the activity coefficient is 7.4 ± 0.3.

Take `C1CCCCCCC1` [cyclooctane] + COCCO: the activity coefficient is 20.1 ± 0.9.

As to `CCCCCCCCCC` [decane] + COCCO, the activity coefficient was 56.8 ± 2.2.

For the compound `CCc1ccccc1` [ethylbenzene] + CC(O)CO, the activity coefficient stood at 26.2 ± 3.1.

With `CCc1ccccc1` [ethylbenzene] + COCCO, the activity coefficient was 4.9 ± 0.3.

`Fc1ccccc1` [fluorobenzene] + CC(O)CO: the activity coefficient turned out to be 8.5 ± 0.5.

For the compound `Fc1ccccc1` [fluorobenzene] + COCCO, the activity coefficient stood at 1.8 ± 0.2.

For the compound `CCCCCCC` [heptane] + CC(O)CO, the activity coefficient turned out to be 109 ± 30.

`CCCCCCC` [heptane] + COCCO: the activity coefficient turned out to be 22.4 ± 0.9.

On to `CCCCCC` [hexane] + CC(O)CO, for which the activity coefficient was 63 ± 20.

For `CCCCCC` [hexane] + COCCO, the activity coefficient is 16.3 ± 0.8.

`CC1CCCCC1` [methylcyclohexane] + COCCO: the activity coefficient was found to be 14.7 ± 0.9.

In the case of `CC1CCCC1` [methylcyclopentane] + COCCO, the activity coefficient was 11 ± 0.7.

As for `c1ccc2ccccc2c1` [naphthalene] + CC(O)CO, the activity coefficient is 136 ± 21.

Consider `c1ccc2ccccc2c1` [naphthalene] + COCCO, for which the activity coefficient was 11 ± 2.

`CCCCCCCCC` [nonane] + COCCO: the activity coefficient was determined as 41.4 ± 1.7.

As to `CCCCCCCC` [octane] + CC(O)CO, the activity coefficient was 150 ± 40.

Regarding `CCCCCCCC` [octane] + COCCO, the activity coefficient amounted to 27.9 ± 1.

For `Cc1ccccc1` [toluene] + CC(O)CO, the activity coefficient amounted to 17 ± 2.1.

Consider `Cc1ccccc1` [toluene] + COCCO, for which the activity coefficient is 3.6 ± 0.4.

Take `CCCCCCCCCCC` [undecane] + COCCO: the activity coefficient was 94.6 ± 3.7.

The values are drawn from the NIST ThermoML archive (doi:10.1016/j.jct.2014.06.006).
